Measured values published in paper PMC10319809, “Chronic UCN2 treatment desensitizes CRHR2 and improves insulin sensitivity” (Nature Communications, 2023).
Values joined by “and” are separate entries in the source; they are usually repeats but may differ in a detail not shown here. Equal values may be shown once. Where no end group is shown, it is not given here.

Key:
mouse soleus muscle = assay: Ex vivo soleus muscle [3H]2-deoxyglucose uptake
Procedure: Soleus muscle was removed from fed animals anesthetized by an intraperitoneal injection of pentobarbital (10 mg/100 g body weight). Dissected soleus muscles were suspended at 5 mN of tension in incubation chambers (Model 610/820 M, Danish Myo-Technology, Denmark) containing Krebs-Ringer-Buffer supplemented with 0.1% BSA, 2 mM pyruvate and 8 mM Mannitol. During the entire incubation period the KRB was maintained at 30 °C and oxygenated with 95% O2 and 5% CO2. Following 10 min of pre-incubation muscles were incubated in Krebs buffer +/− 100 nM (−7.0 log[M]) UCN2. At the next time point, 30 min later, muscles were placed in baths containing Krebs buffer +/− 100 nM (−7.0 [M]) UCN2. At the next time point, 15 min later, muscles were placed in baths containing Krebs buffer +/− 100 nM (−7.0 log[M]) UCN2 + /− 60 nM Insulin (Actrapid, Novo Nordisk, Bagsvaerd, Denmark) for 15 min. For the ex vivo glucose uptake studies, 1 mM [^3H]2-deoxyglucose (Perkin-Elmer) and 7 mM [^14C]mannitol (Perkin-Elmer) was also added at this time. Muscles that were in saline in the first bath, saline in the second bath, and saline in the third bath were assigned to the SSS group. Muscles that were in saline in the first bath, saline in the second bath, and UCN2 in the third bath were assigned to the SSU group. Muscles that were in UCN2 in the first bath, saline in the second bath, and UCN2 in the third bath were assigned to the USU group. Muscles that were in saline in the first bath, UCN2 in the second bath, and UCN2 in the third bath were assigned to the SUU group. Following incubation, muscles were harvested, washed in ice-cold KRB and immediately frozen in liquid nitrogen.
Glucose uptake was determined in muscle protein lysates by assessing the accumulation of [^3H]2-deoxyglucose with the use of [^14C]mannitol to correct for the extracellular space. Radioactivity was measured by liquid scintillation counting.

male mice = assay: Plasma insulin during glucose tolerance test; assay type: in vivo, mouse; details: 1 mg/kg IP UCN2
Procedure: All metabolic tests were performed using standard protocols on male littermates (aged: 10–14 weeks). For glucose tolerance tests (GTTs), animals were fasted for 8 h with ad libitum access to water. Fasting glucose measurements were taken before […] oral glucose dose. Blood glucose measurements were taken via tail nick using the AlphaTRAK 2 Glucose Monitoring System (Zoetis, Parsippany-Troy Hills, NJ) at 10, 30, 60, and 120 min after dose. Blood was collected for insulin measurement in EDTA tubes (Becton, Dickinson and Company, Franklin Lakes, NJ) and centrifuged to collect plasma (2000 g for 10 min at 4 °C), which was stored at −80 °C until analysis at 10, 30, 60, and 120 min after dose. Insulin levels were measured using an Ultrasensitive Mouse Insulin ELISA (ALPCO, Salem, NH), according to manufacturer’s instructions. For insulin tolerance tests (ITTs), animals were fasted for 8 h and blood glucose was measured before (0 min) and at 30, 60, 90, and 120 min following IP injection of 0.75 IU/kg of insulin (Humulin R, Eli Lilly, Indianapolis, IN). […]

## IVLSLDVPIGLLQILLEQARARAAREQATTNARILARVGHC-NH2 (C-terminus assumed) [UCN2, Urocortin 2]
Mouse soleus muscle; Fig 6C, UCN2 without insulin, individual muscles
  2DG Uptake: 0.55 µmol/g/h and 1.85 µmol/g/h and 0.61 µmol/g/h and 0.24 µmol/g/h and 0.63 µmol/g/h
Mouse soleus muscle; soleus muscle, 100 nM UCN2, 60 nM insulin
  insulin-mediated glucose uptake, acute treatment ex vivo: sufficient to blunt insulin-mediated glucose uptake
Mouse soleus muscle; soleus muscle, 100 nM UCN2 pre-treatment (SUU, USU) versus acute (SSU)
  insulin-mediated glucose uptake after UCN2 pre-treatment ex vivo: increased insulin-mediated glucose uptake relative to acute UCN2 treatment
Male mice
  plasma insulin levels during the oGTT versus vehicle: No significant difference
